These results are taken from US20220363667A1 (Nippon Chemiphar Co., Ltd., priority 2018, published 2022).

This test concerns SD rats. In words: Rat formalin test. It counts as in vivo. The settings on record: po, 30 mg/kg orally once, pain behavior time from 15 to 30 minutes after formalin administration vs vehicle group, read-out: Inhibition ratio (pain behavior inhibition ratio). On the procedure:
30 mg/kg of a vehicle or a test substance was orally administrated to SD rats once, and according to the method described in McNamara C. R., Mandel-Brehm J., Bautista D. M., Siemens J., Deranian K. L., Zhao M., Hayward N. J., Chong J. A., Julius D., Moran M. M., Fanger C. M.: TRPA1 mediates formalin-induced pain. Proc. Natl. Acad. Sci. U.S.A. 104, 2007, 13525-13530, 50 μL of a 2.0% formalin solution as a pain-inducing substance was subcutaneously administered under the skin of the plantar plate of the right hind limb of each rat.
Regarding the evaluation, the pain behavior inhibition ratio was determined from the pain behavior time of each test substance-administered group with respect to the pain behavior time of the vehicle-administered group for 15 minutes measured from 15 minutes to 30 minutes after the administration.
Turning to `O=C(N[C@@H]1CCN(c2cncc(C(F)(F)F)c2)C1)C1CC1c1cc(Cl)cc(Cl)c1` (single isomer, unassigned) [Example 99A], the inhibition in vivo at 30 mg/kg was less than 10%.

On to `O=C(N[C@@H]1CCN(c2cncc(C(F)(F)F)c2)C1)C1CC1c1ccc(Br)cc1` (single isomer, unassigned) [Example 100A], for which the inhibition in vivo at 30 mg/kg is not below 20%.

As for `O=C(Cc1ccc(C2CC2)cc1)N[C@@H]1CCN(c2cncc(C(F)(F)F)c2)C1` [Example 1, (R)-2-(4-cyclopropylphenyl)-N-(1-(5-(trifluoromethyl)pyridin-3-yl)pyrrolidin-3-yl)acetamide], the inhibition in vivo at 30 mg/kg is not below 20%.

Take `CC(C)c1ccc(CC(=O)N[C@@H]2CCN(c3cncc(C(F)(F)F)c3)C2)cc1` [Example 4, (R)-2-(4-isopropylphenyl)-N-(1-(5-(trifluoromethyl)pyridin-3-yl)pyrrolidin-3-yl)acetamide]: the inhibition in vivo at 30 mg/kg is not below 20%.

Take `O=C(Cc1ccc(C2CC2)cc1)N[C@H]1CN(c2cncc(C(F)(F)F)c2)C[C@@H]1O` [Example 5, 2-(4-Cyclopropylphenyl)-N-((3S,4S)-4-hydroxy-1-(5-(trifluoromethyl)pyridin-3-yl)pyrrolidin-3-yl)acetamide]: the inhibition in vivo at 30 mg/kg is not below 20%.

For `O=C(Cc1ccc(C2CC2)cc1)N[C@H]1CN(c2nc(C(F)(F)F)cs2)CC12CC2` [Example 8, (R)-2-(4-cyclopropylphenyl)-N-(5-(4-(trifluoromethyl)thiazol-2-yl)-5-azaspiro[2.4]heptan-7-yl)acetamide], the inhibition in vivo at 30 mg/kg is less than 10%.

Take `O=C(Cc1ccc(C(F)(F)F)cc1)N[C@@H]1CCN(c2cncc(C(F)(F)F)n2)C1` [Example 11, (R)-2-(4-(trifluoromethyl)phenyl)-N-(1-(6-(trifluoromethyl)pyrazin-2-yl)pyrrolidin-3-yl)acetamide]: the inhibition in vivo at 30 mg/kg was not below 20%.

Consider `N#Cc1ncc(N2CC[C@@H](NC(=O)Cc3ccc(C4CC4)cc3)C2)cc1C(F)(F)F` [Example 12, (R)—N-(1-(6-cyano-5-(trifluoromethyl)pyridin-3-yl)pyrrolidin-3-yl)-2-(4-cyclopropylphenyl)acetamide], for which the inhibition in vivo at 30 mg/kg is 10 to 20%.

As to `O=C(Cc1ccc(N2CCS(=O)(=O)CC2)cc1)N[C@@H]1CCN(c2cncc(C(F)(F)F)c2)C1` [Example 23, (R)-2-(4-(1,1-dioxidethiomorpholino)phenyl)-N-(1-(5-(trifluoromethyl)pyridin-3-yl)pyrrolidin-3-yl)acetamide], the inhibition in vivo at 30 mg/kg is less than 10%.

As to `N#CC1(NC(=O)Cc2ccc(C3CC3)cc2)CCN(c2cncc(C(F)(F)F)c2)C1` (stereo not shown) [Example 36, N-(3-cyano-1-(5-(trifluoromethyl)pyridin-3-yl)pyrrolidin-3-yl)-2-(4-cyclopropylphenyl)acetamide], the inhibition in vivo at 30 mg/kg is less than 10%.

Consider `COC(=O)C1(NC(=O)Cc2ccc3cc[nH]c3c2)CCN(c2cncc(C(F)(F)F)c2)C1` (stereo not shown) [Example 37, Methyl 3-(2-(1H-indol-6-yl)acetamido)-1-(5-(trifluoromethyl)pyridin-3-yl)pyrrolidine-3-carboxylate], for which the inhibition in vivo at 30 mg/kg is less than 10%.

On to `O=C(N[C@@H]1CCN(c2cncc(C(F)(F)F)c2)C1)[C@H]1C[C@@H]1c1nc2ccccc2o1` [Example 39, (1S,2S)-2-(benzo[d]oxazol-2-yl)-N—((R)-1-(5-(trifluoromethyl)pyridin-3-yl)pyrrolidin-3-yl)cyclopropane-1-carboxyamide], for which the inhibition in vivo at 30 mg/kg was not below 20%.

Take `O=C(N[C@@H]1CCN(c2cncc(C(F)(F)F)c2)C1)[C@H]1C[C@@H]1c1nc2cc(F)ccc2o1` [Example 49, (1S,2S)-2-(5-fluorobenzo[d]oxazol-2-yl)-N—((R)-1-(5-(trifluoromethyl)pyridin-3-yl)pyrrolidin-3-yl)cyclopropane-1-carboxyamide]: the inhibition in vivo at 30 mg/kg is not below 20%.
